The assay has as its target autotaxin (ATX) (Homo sapiens, UniProt Q13822). Format: biochemical.

The Ki is the equilibrium dissociation constant of an inhibitor or competing ligand from its target. High values mean a looser hold on the target, low ones a stronger hold on the target.

The substance VPC8a202 showed an inhibitory constant (Ki) of around 390 nM.

For the origin of these results see article PMC2736327 (Molecular carcinogenesis, 2009).
